{"source": "paper PMC6429200", "about": "“Synthesis and Broad Antiviral Activity of Novel 2-aryl-isoindolin-1-ones towards Diverse Enterovirus A71 Clinical Isolates” (Molecules, 2019)", "format_in_all_cases": "cell-based, Enterovirus 71 (EV-A71)", "key": {"[1]": {"tested_on": "EV-A71 strain H", "test": "CPE inhibition assay for anti-EV-A71 in Vero cells, H strain", "method": "(§1) An in-vitro antiviral assay was established using the Africa monkey kidney cell line Vero which was infected with different EV-A71 clinical isolates (BrCr, H, Shenzhen98 and Jiangsu52). A total of 24 synthetic compounds were initially screened in such an assay to determine their inhibitory effect on virus replication at 3-fold diluted concentrations serial (400~0.18 μM). The 50% effective concentration (EC50) of each compound was calculated according to its inhibitory rate values with the Reed–Muench method. The 50% cytotoxic concentration (CC50) was defined as the concentration that inhibited 50% cellular growth in comparison with the controls. The selectivity index (SI) was calculated as CC50/EC50. […] Generally, the EV-A71 H strain was less sensitive to most of the active compounds as compared to the other virus strains.\n(§2) EV-A71 strain ShenZhen98 (SZ98) was isolated from the throat swab sample of an HFMD case which occurred in 1998 in China. This was kindly provided by Dr. Qi Jin, Institute of Pathogen Biology, Chinese Academy of Medical Science and Peking Union Medical School, Beijing, China. EV-A71 strains BrCr (VR-1775) and H (VR-1432) were purchased from the ATCC. The EV-A71 strain JS52 was a kind gift from Dr. Xiangzhong Ye, Beijing Wantai Biological Pharmacy Enterprise Co., Ltd. EV-A71 were all passaged in Vero cells.\n(§3) The anti-EV-A71 activity of compounds was determined by the CPE inhibition method. Briefly, cells (3 × 10^4 cells/well) were plated into 96-well culture plates for incubation for 24 h. The medium was then removed and cells were infected with EV-A71 with 100TCID50 (50% tissue culture infective doses) in serum-free medium for 1 h at 37 °C. Then, the unbound viruses were removed and various concentrations of compounds were supplemented and incubated for another 48 h. The EC50 was determined by the Reed–Muench method. The selectivity index was calculated as the ratio of CC50/EC50 [15]."}, "[2]": {"tested_on": "EV-A71 (H strain) VP1 protein", "test": "Western blot of viral VP1 protein in infected Vero cells", "settings": "H strain MOI = 0.1, 1 h infection then A3 for 24 h", "method": "To further confirm the anti-EV-A71 activity, the expression levels of VP1 RNA and protein were determined. Vero cells were infected with the H strain of EV-A71 for 1 h followed by treatment with A3 of various concentrations for another 24 h. […] Meanwhile, the antiviral efficacy of A3 was also tested using viral titer reduction assays.\nVero cells (9 × 10^5 cells/well) were plated into 6-well culture plates for incubation for 16 h. The medium was removed and cells were infected with EV-A71 (H, MOI = 0.1). After 1 h, various concentrations of A3 were supplemented for incubation for another 24 h. The cells were lysed in the M-PER mammalian protein extraction reagent (Thermo, Rockford, IL, USA) containing halt protease inhibitor single-use cocktail (Thermo). The protein concentration was determined by the BCA reagents (Thermo). About 15 μg of proteins was denatured and applied to sodium dodecyl sulfate-polyacrylamide gel electrophoresis (SDS-PAGE). The electrophoresis products were transferred to a polyvinyl idenefluoride (PVDF) film and PVDF membranes were then incubated at room temperature with a specific primary antibody. […]\nFigure 2 Compound A3 inhibited EV-A71 replication in vitro. […] Intracellular viral VP1 protein (A) and RNA (B) were determined by Western blot and qRT-PCR assays, respectively. […]"}, "[3]": {"tested_on": "EV-A71", "test": "Time-of-addition assay (VP1 Western blot) in Vero cells", "method": "In order to explore the inhibitory effect of compound A3 on the EV-A71 viral life cycle, EV-A71 viral protein VP1 was measured via Western blot when Vero cells were treated with compound A3 prior to, during, or after EV-A71 viral incubation (Figure 3). […] It is likely that compound A3 inhibits the EV-A71 replication by acting on the virus entry stage.\nThe antiviral activity of the tested compound was examined at different time periods prior to, during or after viral infection. Briefly, Vero cells (9 × 10^5 cells/well) were inoculated with EV-A71 (MOI = 1.0) at 37 °C for 1 h. The media with or without treatment were added during the periods of −24~0 h, −1~0 h, 0~10 h, 1~10 h, 2~10 h, 4~10 h, 6~10 h and 8~10 h. After each incubation period, the collected cells were washed with PBS, and then the viral protein was determined by Western blot.\nFigure 3 Time-of-addition analysis of Vero cells with compound A3 treatment prior to, during or after EV-A71 infection. (A) Schematic illustration of experiment to determine which stage of EV-A71 viral cycle was inhibited by compound A3 in Vero cells. […] For all experiments, the collected cells were washed with PBS after 10 h post viral infection, and viral VP1 expression was determined via Western blot assay."}, "[4]": {"tested_on": "EV-A71 strain Jiangsu52 (JS52)", "test": "CPE inhibition assay for anti-EV-A71 in Vero cells, Jiangsu52 strain", "method": "as §1, §2, §3"}, "[5]": {"settings": "Enterovirus A, EVA71, Vero cells, 100TCID50, 48 h"}}, "data": [{"smiles": "O=C1c2ccccc2CN1c1ccc(Cl)cc1", "note": "[Compound A3, 2-(4-chlorophenyl)isoindolin-1-one]", "values": [{"measurement": "H SI", "setting": "[1]; CC50/EC50", "result": 168}, {"measurement": "EC50", "setting": "[1]; [5]", "result": "1.53 ± 0.16", "unit": "µM"}, {"measurement": "viral VP1 protein level", "setting": "[2]", "result": "decreased the levels of viral VP1 protein in a dose-dependent manner"}, {"measurement": "EV-A71 VP1 expression in Vero cells", "setting": "[3]; A3 4 μM at 0, 1 and 2 h after infection (MOI = 1.0), cells collected 10 h post infection, not at the other time periods", "result": "significantly decreased"}, {"measurement": "time-of-addition: effect of pretreatment", "setting": "[3]; A3 added 24 or 1 h prior to infection", "result": "did not display any resistance to infection by EV-A71"}, {"measurement": "time-of-addition: efficacy, addition after infection", "setting": "[3]; A3 added at 1 or 2 h after EV-A71 infection", "result": "significant efficacy"}, {"measurement": "time-of-addition: inhibitory activity, addition during inoculation", "setting": "[3]; A3 added during the inoculation of the virus", "result": "maximum inhibitory activity"}, {"measurement": "Jiangsu52 SI", "setting": "[4]; CC50/EC50", "result": 199}, {"measurement": "EC50", "setting": "[4]; [5]", "result": "1.29 ± 0.24", "unit": "µM"}]}]}
